Results taken from US20230346905A1, “P[…] AGAINST […] ME[…] […] MEN A ANTIGEN” (GlaxosmithKline Biologicals SA, priority 2020, published 2023).
Entries after “also recorded” stand apart in the source; their conditions may differ.

Columns and labels:
[1] = test system: anti-carbaMenA DP8 serum; test: Competitive ELISA of anti-carbaMenA DP8 serum; type: binding, BALB/c female mice
Procedure: (§1) Conjugates prepared as previously described from sized MenA polysaccharide with avDP8.5 and ˜15 were used as controls.
(§2) Mice received three subcutaneously (s.c.) doses (2 μg on saccharide base), two weeks apart. The neo-glycoconjugate induced an immune response at week 3, as observed by assaying the sera elicited by the conjugate against the same product coated on ELISA plates. At the serum dilutions tested no anti-CRM197 antibodies were detectable. Each of the conjugates gave antibodies recognizing the conjugated antigen and the specificity of this recognition was confirmed by competitive ELISA.

[2] = test system: anti-deOAc MenA serum; test: Competitive ELISA against anti-deOAc MenA serum; type: binding
Procedure: This corroborated the propensity of carba DP8 to anti-MenA antibody binding. The different fragments were then tested against an anti-deOAc MenA serum.

[3] = test system: anti-MenA polyclonal serum; test: Competitive ELISA with anti-MenA polyclonal serum, CPS as coating; type: binding; conditions: serum from mice immunized with MenA-CRM197 conjugate, FIG. 5B
[4] = test system: MenA CPS; test: Mice immunization, ELISA anti-MenA CPS IgG; type: in vivo, BALB/c mice; conditions: first study, Table 4
Procedure: as §1, §2
To test the immunogenicity of the conjugated carba DP6 and DP8 analogues with and without random acetylation, groups of eight BALB/c female mice were immunized with the neoglycoconjugates. Conjugated sized MenA polysaccharide was used as control. Mice were immunized with three subcutaneously (s.c.) doses (2 μg on saccharide base) two weeks apart. […]
All mice were housed under specific pathogen-free conditions. […] The antibody response induced by the glycoconjugates has been measured by ELISA. […] Finally, plates were incubated for 30 min at room temperature and read at 405 nm using the plate reader Spectramax 190. Sera titers were expressed as the reciprocal of sera dilution corresponding to a cut-off OD=1. […]

[5] = test system: bactericidal anti-MenA mAb (JW-A1); test: Competitive ELISA with anti-MenA mAb, CPS as coating; type: binding; conditions: FIG. 5A
Source text: (FIG. 5C) Competitive SPR of binding between anti-MenA mAb and immobilized biotylinated CPS. MenA CPS and deOAc CPS were the positive controls and the beta-glucan Laminarin was the negative control in A and B. MenA CPS and fragments thereof were used as positive controls and anti-MenC mAb was flown on the chip as negative control in C.
An important prerequisite for the immunogenicity of the carba-analogues is their ability to mimic the natural MenA CPS. To investigate this property in vitro, binding of oligomers with the different length to a bactericidal anti-MenA mAb (JW-A1) in comparison to CPS and a medium length oligomer with avDP ˜15 was tested as described in Giuntini, S. et al., PLoS One, 2012, 7, e34272; Tsang, R. S. et al., Clin. Diagn. Lab. Immunol., 2005, 12, 152-156; and Reyes, F. et al., Biologicals, 2013, 41, 275-278.

[6] = DSC, cited from earlier work; for Tm of the N-terminal domain: Johnson et al. 2012

| Substance | inhibition of the binding of the anti-carbaMenA DP8 serum (in words) [1] | IC50 [2] | performance as inhibitor [3] | anti-MenA CPS response lower than the benchmark MenA-CRM197 conjugate [4] | IC50 higher compared to the native CPS [5] | recognition of / binding to the anti-MenA mAb ([5]; competitive ELISA, non-acetylated carbaMenA oligomers as inhibitors, CPS coating) | Tm of the N-terminal domain [6] | Tm of C-terminal domains [6] |
| --- | --- | --- | --- | --- | --- | --- | --- | --- |
| 1-O-octa-(2-Acetamido-2-deoxy-5a-carba-α-D-mannopyranosyl-1-O-phosphoryl)-6-hexyl-amine [carba DP8] | to a greater extent than its conjugated form | 15.9 µM | performed as inhibitor comparably to the deOAc CPS | 2 fold lower | 4 orders of magnitude | binding was observed; also recorded: clearly binding to anti-MenA antibodies |  |  |
| wild-type v2: wild-type meningococcal fHbp variant 2 from strain 2996 |  |  |  |  |  |  | ≤ 40 °C | ≥ 80 °C |
| wild-type v3: wild-type meningococcal fHbp variant 3 from strain M1239 |  |  |  |  |  |  | ≤ 60 °C | ≥ 80 °C |
